In paper PMC11470957, “Principles of paralog-specific targeted protein degradation engaging the C-degron E3 KLHDC2” (Nature Communications, 2024):
Where “and” joins values, the source holds several entries; their conditions need not be identical. Equal values may be shown once.

Legend:
[1] = target: T1, KLHDC2^SBD (Homo sapiens, UniProt Q9Y2U9); assay: ITC, binary binding of small molecule to KLHDC2^SBD
T1 sequence (Q9Y2U9 15-361): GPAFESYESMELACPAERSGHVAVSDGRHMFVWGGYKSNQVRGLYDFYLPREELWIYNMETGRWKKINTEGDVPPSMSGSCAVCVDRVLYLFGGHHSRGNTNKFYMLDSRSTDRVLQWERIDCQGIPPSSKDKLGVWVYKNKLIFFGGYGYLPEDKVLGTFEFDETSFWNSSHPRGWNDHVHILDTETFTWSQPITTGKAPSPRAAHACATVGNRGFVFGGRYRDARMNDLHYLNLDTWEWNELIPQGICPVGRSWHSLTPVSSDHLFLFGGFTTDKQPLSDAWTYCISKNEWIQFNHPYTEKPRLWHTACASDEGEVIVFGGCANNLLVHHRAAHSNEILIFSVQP

[2] = target: T1, KLHDC2^SBD; assay: Surface plasmon resonance binding to KLHDC2; design: KLHDC2^SBD (15-361) and its Avi-tagged counterpart were expressed in E. coli Rosetta2 cells; 6XHis-MBP (N, cleaved yes); made in house; host or cells: E. coli Rosetta2; conditions: for SPR Response: FigS3d
Experimental: Surface plasmon resonance (SPR) was utilized to determine kinetic parameters and binding affinity of KLHDC2 substrates using a PioneerFE (Sartorius). Experiments were carried out in 20 mM Tris, 200 mM NaCl, 1 mM TCEP, 0.01% Brij35, and 1% DMSO at pH 7.4 as a running buffer with a 100 µL/min flow rate at 20 °C.
The 10xHis-KLHDC2 was immobilized onto a Ni-NTA-coated biosensor chip (HisCap). The chip surface was conditioned using 10 mM HCl, 50 mM NaOH, and 0.1% SDS (50 µL at 100 µL/min) twice, followed by a 100 mM Tris buffer wash (100 µL at 100 µL/min). The surface was then activated using an injection of 0.5 M EDTA (125 µL at 25 µL/min) followed by an injection of 5 mM NiCl2 (125 µL at 25 µL/min). […] Channel 2 was treated identically to channel 3 except for protein loading to be used as a reference channel. […] 100% of the loop was injected with a 300 s dissociation time. All samples were run in triplicate. Data was analyzed using Qdat software and fit to a simple 1-site model.
The SPR experiments were performed to determine the binding affinities (KD) of KLHDC2-SJ46411 and KLHDC2-SJ46418 complexes. All the experiments were performed using a Biacore 1S+ instrument. […] The running buffer consisted of 20 mM Tris pH 7.5, 200 mM NaCl, 1 mM TCEP, 0.01% Brij35, and 4% DMSO. […] In brief, before the immobilization, the sensor chip surface was conditioned by injecting a mixture of (3:1 v/v) 8 M guanidine hydrochloride and 1 M NaOH at a flow rate of 5 μL/min for 2 min for two times. Then, running buffer was injected at a 30 μl/min flow rate for 1 min 3 times. Next, the Biotin CAPture reagent was injected at a flow rate of 2 μl/min for 5 min. Then, biotinylated KLHDC2 was only injected onto the active channel (channel 2).
Sample preparation was carried out precisely the same as SJ46411. All experiments were performed using a multi-cycle analysis method with a 30 μl/min flow rate, 120 S association, and 240 s dissociation time. All data were reference subtracted and corrected for DMSO mismatch. The sensorgrams were analyzed using Biacore insight evaluation software, and KD was determined using the 1:1 steady-state affinity fitting. Finally, all the analyzed data was replotted using GraphPad Prizm 10 software.

[3] = target: T1, KLHDC2^SBD; assay: TR-FRET assay, competition with di-Gly degron peptide binding to KLHDC2^SBD; design: KLHDC2^SBD (15-361) and its Avi-tagged counterpart were expressed in E. coli Rosetta2 cells; 6XHis-MBP (N, cleaved yes); made in house; host or cells: E. coli Rosetta2
Experimental: TR-FRET assays were carried out in black 384-well microtiter plates at a final volume of 20 μL per well. An assay cocktail was prepared as a mixture of 50 nM Biotin-KLHDC2 SBD, 20 nM AlexaFluor488-RIC8B peptide, 2.5 nM Tb-Streptavidin (ThermoFisher) in assay buffer (25 mM HEPES, 100 mM NaCl, 0.1% Triton X-100, 0.5 mM DTT, pH 7.5). The assay cocktail was incubated for thirty-minutes at room temperature and 20 μl distributed to assay plates. Molecules were distributed to the plates at the indicated concentration and the assay mixture was incubated for 1 h at room temperature prior to measuring the TR-FRET signal with a PHERAstar FS plate reader (BMG Labtech) equipped with modules for excitation at 337 nm and emissions at 490 and 520 nm. The integration start was set to 100 µs and the integration time to 200 µs. The number of flashes was fixed at 100. The ratio of 520/490 was used as TR-FRET signal in calculations. Assay endpoints were normalized to 100% (buffer only) and used for curve fitting in Prism.

[4] = cell: ligand, syringe: KLHDC2^SBD

- Kd ([1]; ITC Kd, as printed in Fig 2d/3b): 210 nM
- Kd ([1]; ITC Kd, cell: ligand, syringe: KLHDC2^SBD): 216 ± 17 nM
- Kd ([1]; Kd, ITC, syringe KLHDC2, cell compound, Rep1, Rep2): 205 nM and 229 nM
- ITC -TΔS [1, 4]: -0.94 +/- 0.02 kcal/mol-1
- ITC stoichiometry of binding N [1, 4]: 0.9
- ITC ΔG [1, 4]: -8.82 +/- 0.04 kcal/mol-1
- ITC ΔH [1, 4]: -7.88 +/- 0.07 kcal/mol-1
- Raw SPR response ([2]; 0.0976562 uM, time -29 s): 0.0989
- Raw SPR response ([2]; 0.0976562 uM, time -29.1 s): 0.1275
- Raw SPR response ([2]; 0.0976562 uM, time -29.2 s): 0.1501
- Raw SPR response ([2]; 0.0976562 uM, time -29.3 s): 0.2497
- Raw SPR response ([2]; 0.195312 uM, time -29 s): 0.0952
- Raw SPR response ([2]; 0.195312 uM, time -29.1 s): 0.1196
- Raw SPR response ([2]; 0.195312 uM, time -29.2 s): 0.1572
- Raw SPR response ([2]; 0.195312 uM, time -29.3 s): 0.2514
- Raw SPR response ([2]; 0.390625 uM, time -29 s): 0.1406
- Raw SPR response ([2]; 0.390625 uM, time -29.1 s): 0.1812
- Raw SPR response ([2]; 0.390625 uM, time -29.2 s): 0.2616
- Raw SPR response ([2]; 0.390625 uM, time -29.3 s): 0.3693
- Raw SPR response ([2]; 0.78125 uM, time -29 s): 0.1584
- Raw SPR response ([2]; 0.78125 uM, time -29.1 s): 0.1946
- Raw SPR response ([2]; 0.78125 uM, time -29.2 s): 0.2669
- Raw SPR response ([2]; 0.78125 uM, time -29.3 s): 0.3893
- Raw SPR response ([2]; 1.5625 uM, time -29 s): 0.1505
- Raw SPR response ([2]; 1.5625 uM, time -29.1 s): 0.1878
- Raw SPR response ([2]; 1.5625 uM, time -29.2 s): 0.2713
- Raw SPR response ([2]; 1.5625 uM, time -29.3 s): 0.3827
- Raw SPR response ([2]; 2.34375 uM, time -29 s): 0.1726
- Raw SPR response ([2]; 2.34375 uM, time -29.1 s): 0.2365
- Raw SPR response ([2]; 2.34375 uM, time -29.2 s): 0.3258
- Raw SPR response ([2]; 2.34375 uM, time -29.3 s): 0.5246
- Raw SPR response ([2]; 3.125 uM, time -29 s): 0.1584
- Raw SPR response ([2]; 3.125 uM, time -29.1 s): 0.2098
- Raw SPR response ([2]; 3.125 uM, time -29.2 s): 0.2855
- Raw SPR response ([2]; 3.125 uM, time -29.3 s): 0.3398
- Raw SPR response ([2]; 4.6875 uM, time -29 s): 0.1506
- Raw SPR response ([2]; 4.6875 uM, time -29.1 s): 0.2195
- Raw SPR response ([2]; 4.6875 uM, time -29.2 s): 0.3095
- Raw SPR response ([2]; 4.6875 uM, time -29.3 s): 0.4038
- Raw SPR response ([2]; 12.5 uM, time -29 s): 0.1017
- Raw SPR response ([2]; 12.5 uM, time -29.1 s): 0.1107
- Raw SPR response ([2]; 12.5 uM, time -29.2 s): 0.1281
- Raw SPR response ([2]; 12.5 uM, time -29.3 s): 0.1417
- Raw SPR data, fit ([2]; 0.09765625 Fit, time -29 s): -0.002337
- Raw SPR data, fit ([2]; 0.09765625 Fit, time -29.1 s): -0.002345
- Raw SPR data, fit ([2]; 0.09765625 Fit, time -29.2 s): -0.002354
- Raw SPR data, fit ([2]; 0.09765625 Fit, time -29.3 s): -0.002362
- Raw SPR data, fit ([2]; 0.1953125Fit uM, time -29 s): 0.003849
- Raw SPR data, fit ([2]; 0.1953125Fit uM, time -29.1 s): 0.003863
- Raw SPR data, fit ([2]; 0.1953125Fit uM, time -29.2 s): 0.003876
- Raw SPR data, fit ([2]; 0.1953125Fit uM, time -29.3 s): 0.003889
- Raw SPR data, fit ([2]; 0.390625fit, time -29 s): 0.007264
- Raw SPR data, fit ([2]; 0.390625fit, time -29.1 s): 0.007289
- Raw SPR data, fit ([2]; 0.390625fit, time -29.2 s): 0.007315
- Raw SPR data, fit ([2]; 0.390625fit, time -29.3 s): 0.00734
- Raw SPR data, fit ([2]; 0.78125 fit, time -29 s): 0.01901
- Raw SPR data, fit ([2]; 0.78125 fit, time -29.1 s): 0.01908
- Raw SPR data, fit ([2]; 0.78125 fit, time -29.2 s): 0.01915
- Raw SPR data, fit ([2]; 0.78125 fit, time -29.3 s): 0.01921
- Raw SPR data, fit ([2]; 1.5625 fit, time -29 s): 0.01693
- Raw SPR data, fit ([2]; 1.5625 fit, time -29.1 s): 0.01699
- Raw SPR data, fit ([2]; 1.5625 fit, time -29.2 s): 0.01704
- Raw SPR data, fit ([2]; 1.5625 fit, time -29.3 s): 0.0171
- Raw SPR data, fit ([2]; 2.34375fit, time -29 s): 0.02325
- Raw SPR data, fit ([2]; 2.34375fit, time -29.1 s): 0.02333
- Raw SPR data, fit ([2]; 2.34375fit, time -29.2 s): 0.02341
- Raw SPR data, fit ([2]; 2.34375fit, time -29.3 s): 0.0235
- Raw SPR data, fit ([2]; 3.125 fit, time -29 s): 0.02052
- Raw SPR data, fit ([2]; 3.125 fit, time -29.1 s): 0.02059
- Raw SPR data, fit ([2]; 3.125 fit, time -29.2 s): 0.02066
- Raw SPR data, fit ([2]; 3.125 fit, time -29.3 s): 0.02074
- Raw SPR data, fit ([2]; 4.6875 fit, time -29 s): 0.02316
- Raw SPR data, fit ([2]; 4.6875 fit, time -29.1 s): 0.02324
- Raw SPR data, fit ([2]; 4.6875 fit, time -29.2 s): 0.02332
- Raw SPR data, fit ([2]; 4.6875 fit, time -29.3 s): 0.0234
- Raw SPR data, fit ([2]; 12.5 fit, time -29 s): 0.01922
- Raw SPR data, fit ([2]; 12.5 fit, time -29.1 s): 0.01929
- Raw SPR data, fit ([2]; 12.5 fit, time -29.2 s): 0.01935
- Raw SPR data, fit ([2]; 12.5 fit, time -29.3 s): 0.01942
- SPR Response ([2]; analyte 0.0977 μM): 0.48 RU
- SPR Response ([2]; analyte 0.195 μM): 0.7348 RU
- SPR Response ([2]; analyte 0.391 μM): 1.4491 RU
- SPR Response ([2]; analyte 0.781 μM): 2.3401 RU
- SPR Response ([2]; analyte 1.56 μM): 3.3797 RU
- SPR Response ([2]; analyte 2.34 μM): 3.8756 RU
- SPR Response ([2]; analyte 4.69 μM): 4.4852 RU
- SPR Response ([2]; analyte 12.5 μM): 5.3052 RU
- SPR Rmax ([2]; n=1): 5.70 +/- 0.20
- Kd ([2]; read-out: SPR Kd): 1000 nM and 983 nM
- % Inhibition, normalized TR-FRET dose response ([3]; Log Concentration 2.39794): 13.1742% and 22.1732% and 17.7572%
- % Inhibition, normalized TR-FRET dose response ([3]; Log Concentration 2.64098): 24.253% and 29.1375% and 24.8323%
- % Inhibition, normalized TR-FRET dose response ([3]; Log Concentration 3.273): 57.5653% and 59.1955% and 57.0453%
- % Inhibition, normalized TR-FRET dose response ([3]; Log Concentration 3.87506): 85.4899% and 86.6902% and 84.0459%
- % Inhibition, normalized TR-FRET dose response ([3]; Log Concentration 4.39794): 85.0979% and 85.1063% and 81.8885%
- IC50 ([3]; inhibition of KLHDC2^SBD binding to a di-Gly degron peptide, read-out: TR-FRET IC50): 1100 nM
Structure (SMILES): COCCOc1cccc2ccc(-c3nc(CC(=O)NCC(=O)O)cs3)cc12 [SJ46418]
